Target: EncM (Streptomyces maritimus, UniProt Q9KHK2)
Experiment: LC-MS product formation, low activity
Type: biochemical
Conditions: in vitro purified enzyme; not detected in lysate

CCCCCc1cc(O)c(C/C=C(\C)CCC=C(C)C)c(O)c1C(=O)O [compound 3, cannabigerolic acid]
LC-MS product formation, low activity: several other enzymes had low activity not detected in lysate assays, including EncM

— paper PMC11031283 (ACS synthetic biology, 2024)
